The record followed here is ChEMBL document CHEMBL1137013, “Discovery of (2R)-2-(3-{3-[(4-Methoxyphenyl)carbonyl]-2-methyl-6-(trifluoromethoxy)-1H-indol-1-yl}phenoxy)butanoic acid (MK-0533): a novel selective peroxisome proliferator-activated receptor gamma modulator for the treatment of type 2 diabetes mellitus with a reduced potential to increase plasma …” (J Med Chem, 2009).

Data set [1] relates to Liver microsomes. The experiment in a line: Protein binding in human liver microsomes assessed per mg of protein. The class given is ADME, Microsome.
Data set [2] has as its system Liver. The experiment in a line: Protein binding in rat liver assessed per mg of protein. The class given is ADME, tissue-based.
For data set [3], the target named is T1, Peroxisome proliferator-activated receptor delta (Homo sapiens) (UniProt Q03181).
T1 sequence (whole entry): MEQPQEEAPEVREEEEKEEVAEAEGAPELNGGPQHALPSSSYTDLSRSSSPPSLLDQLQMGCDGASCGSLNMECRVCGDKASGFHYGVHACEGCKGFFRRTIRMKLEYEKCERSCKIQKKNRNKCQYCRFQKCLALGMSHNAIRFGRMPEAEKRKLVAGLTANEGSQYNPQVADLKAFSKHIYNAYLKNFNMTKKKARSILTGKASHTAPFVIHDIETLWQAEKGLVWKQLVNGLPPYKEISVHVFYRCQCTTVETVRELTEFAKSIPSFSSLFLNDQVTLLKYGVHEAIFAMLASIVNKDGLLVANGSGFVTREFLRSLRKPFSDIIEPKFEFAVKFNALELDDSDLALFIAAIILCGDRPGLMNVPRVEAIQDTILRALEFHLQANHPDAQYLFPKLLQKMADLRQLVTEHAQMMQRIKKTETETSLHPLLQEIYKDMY
The experiment in a line: Displacement of [3H2]nTZD4 from human recombinant GST-fused PPARdelta expressed in Escherichia coli at 10 uM by scintillation proximity assay. In general terms: In a scintillation proximity assay essentially only radioactivity close to the scintillant gives light.

Data set [4] has as its target T2, Peroxisome proliferator-activated receptor alpha (Homo sapiens) (UniProt Q07869).
T2 sequence (whole entry): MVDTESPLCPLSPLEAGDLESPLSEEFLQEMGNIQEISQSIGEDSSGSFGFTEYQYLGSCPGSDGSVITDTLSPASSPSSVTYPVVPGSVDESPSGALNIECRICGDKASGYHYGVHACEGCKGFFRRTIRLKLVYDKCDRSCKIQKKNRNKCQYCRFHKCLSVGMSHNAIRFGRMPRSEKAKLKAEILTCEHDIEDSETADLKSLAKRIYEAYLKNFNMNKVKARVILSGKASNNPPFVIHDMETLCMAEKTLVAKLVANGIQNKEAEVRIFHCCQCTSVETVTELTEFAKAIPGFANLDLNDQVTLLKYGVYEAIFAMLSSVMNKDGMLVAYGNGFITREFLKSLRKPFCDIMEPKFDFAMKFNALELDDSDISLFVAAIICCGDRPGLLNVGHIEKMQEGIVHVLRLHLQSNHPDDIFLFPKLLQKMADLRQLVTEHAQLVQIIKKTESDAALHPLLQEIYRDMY
Briefly: Agonist activity at human recombinant PPARalpha expressed in COS1 cells coexpressing GAL4 assessed as transcriptional activity at 3000 nM after 48 hrs by luciferase reporter gene assay. The class given is functional, cell-based. The note with it: COS-1. A general note: Reporter assays use an easily measured gene product as a stand-in for the process of interest.

Data set [5] can be described thus: Agonist activity at hamster PPARalpha. The note with it: read-out: EC50. The class given is functional, Cricetinae.
Data set [6] concerns the target T3, Peroxisome proliferator-activated receptor alpha (Canis lupus familiaris, UniProt Q95N78).
T3 sequence (Q95N78 whole entry): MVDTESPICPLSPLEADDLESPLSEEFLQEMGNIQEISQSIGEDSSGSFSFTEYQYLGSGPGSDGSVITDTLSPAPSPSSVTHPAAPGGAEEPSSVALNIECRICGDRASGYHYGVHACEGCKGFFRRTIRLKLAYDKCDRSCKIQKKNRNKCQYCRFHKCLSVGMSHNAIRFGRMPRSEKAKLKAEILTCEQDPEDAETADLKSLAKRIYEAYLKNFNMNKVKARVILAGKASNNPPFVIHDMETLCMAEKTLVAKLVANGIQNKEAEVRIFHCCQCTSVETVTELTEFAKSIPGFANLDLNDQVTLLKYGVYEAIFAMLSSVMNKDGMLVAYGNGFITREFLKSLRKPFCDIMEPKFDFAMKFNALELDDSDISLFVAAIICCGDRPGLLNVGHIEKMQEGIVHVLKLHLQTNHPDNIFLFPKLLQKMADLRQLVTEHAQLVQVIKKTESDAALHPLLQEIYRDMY
Briefly: Agonist activity at dog PPARalpha. Format: functional. The note with it: read-out: EC50.

Data set [7] can be described thus: Cmax in rat. Format: ADME, organism-based. The note with it: in vivo.
Data set [8] is described as follows: Volume of distribution at steady state in rat. Format: ADME, organism-based. The note with it: in vivo, read-out: Vdss.
Data set [9] is described as follows: Oral bioavailability in dog. The class given is ADME, organism-based, Canis lupus familiaris. The following applies: in vivo.
A short description of data set [10]: Terminal half life in dog. The following applies: in vivo, read-out: beta t1/2 (converted). The class given is ADME, organism-based, Canis lupus familiaris.
Data set [11] in a line: Cmax in dog. Format: ADME, organism-based, Canis lupus familiaris. The following applies: in vivo.
The nature of data set [12]: Plasma clearance in monkey. Format: ADME, organism-based, Macaca mulatta. The following applies: rhesus monkey.
A short description of data set [13]: Cmax in monkey. The class given is ADME, organism-based, Macaca mulatta. The note with it: rhesus monkey, in vivo.
Data set [14] in a line: Volume of distribution at steady state in monkey. The class given is ADME, organism-based, Macaca mulatta. The note with it: rhesus monkey, in vivo; read-out: Vdss.
For data set [15], the system named is Mus musculus. Briefly: Antihyperglycemic activity in db/db mouse assessed as reduction in blood glucose level at 30 mg/kg, po administered once daily for 11 days. Format: functional. Set-up: scale not given: the % may be the effect or the level left.
Data set [16] concerns Rattus norvegicus. The experiment in a line: Toxicity in Sprague-Dawley rat assessed as heart weight at 300 mg/kg dosed daily for 2 weeks. The class given is organism-based. Set-up: dose 300 mg/kg. The following applies: in vivo, 336 h.
The subject of data set [17] is Rattus norvegicus. Briefly: Antidiabetic activity in obese insulin-resistant Zucker fa/fa rat assessed as decrease in plasma free fatty acid level at 3 to 150 mg/kg, po once daily for 7 days. The class given is functional, organism-based.
A short description of data set [18]: AUC in obese insulin-resistant Zucker fa/fa rat at 100 mg/kg, po once daily for 7 days. The class given is ADME, organism-based. Set-up: dose 100 mg/kg, route oral. The following applies: plasma.
Data set [19] is described as follows: AUC in obese insulin-resistant Zucker fa/fa rat at 3 mg/kg, po once daily for 7 days. The class given is ADME, organism-based. Set-up: dose 3 mg/kg, route oral. The note with it: plasma.
Data set [20] concerns Rattus norvegicus. The experiment in a line: Toxicity in obese insulin-resistant Zucker fa/fa rat assessed as increase in plasma volume at 30 mg/kg, po once daily for 7 days by Evans blue dye dilution technique. The class given is organism-based. Set-up: dose 30 mg/kg, route oral. The following applies: in vivo, 168 h.
Data set [21] deals with Rattus norvegicus. Briefly: Toxicity in obese insulin-resistant Zucker fa/fa rat assessed as increase in extracellular fluid volume at 3 to 150 mg/kg, po once daily for 7 days measured after 24 hrs by bioelectrical impedance analysis. Format: organism-based. Set-up: dose 3-150 mg/kg, route oral. The following applies: in vivo.
The subject of data set [22] is Rattus norvegicus. The experiment in a line: Toxicity in obese insulin-resistant Zucker fa/fa rat assessed as increase in heart weight volume at 3 to 150 mg/kg, po once daily for 7 days. Format: organism-based. The following applies: in vivo, 168 h. Set-up: dose 3-150 mg/kg, route oral.
The target in data set [23] is T4, Peroxisome proliferator-activated receptor gamma (Homo sapiens, UniProt P37231).
T4 sequence (P37231 whole entry): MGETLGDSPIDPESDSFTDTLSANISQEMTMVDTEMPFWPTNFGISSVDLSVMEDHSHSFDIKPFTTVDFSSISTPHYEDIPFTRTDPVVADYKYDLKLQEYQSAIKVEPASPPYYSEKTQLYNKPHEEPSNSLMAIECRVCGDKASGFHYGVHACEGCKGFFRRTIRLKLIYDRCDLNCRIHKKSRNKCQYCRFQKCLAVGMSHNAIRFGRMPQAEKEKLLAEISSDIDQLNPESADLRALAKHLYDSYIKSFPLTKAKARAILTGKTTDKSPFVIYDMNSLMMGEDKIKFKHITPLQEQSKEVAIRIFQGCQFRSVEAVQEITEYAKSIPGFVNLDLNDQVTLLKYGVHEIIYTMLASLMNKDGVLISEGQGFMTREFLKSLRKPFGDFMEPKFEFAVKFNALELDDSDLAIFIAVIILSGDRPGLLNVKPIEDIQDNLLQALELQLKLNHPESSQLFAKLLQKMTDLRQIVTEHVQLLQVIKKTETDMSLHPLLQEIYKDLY
Description: Agonist activity at human recombinant PPARgamma expressed in COS1 cells co-expressing GAL4 assessed as transcriptional activity after 48 hrs by luciferase reporter gene assay

The source made the active and inactive calls. The calls are words filed in the database; no cut-off is given here. Some results are limits rather than exact numbers.

Turning to `CC[C@@H](Oc1cccc(-n2c(C)c(C(=O)c3ccc(OC)cc3)c3ccc(OC(F)(F)F)cc32)c1)C(=O)O` [MK-0533], the PB in data set [1] and in [2] was under 10 pmol throughout. In addition, in data set [3], the result was inactive. The Activity is 33% in data set [4]; 83% in [15]; 1.1 g in [16]; “Non-toxic” in [20]; “Non-toxic” in [21]; “Non-toxic” in [22]. The EC50 (commonly the midpoint of the concentration-response curve) in [5] came out at 330 nM; in [6], 370 nM; in [23], 2 nM. Moreover, the peak concentration (Cmax) (commonly the peak of the concentration-time curve) in [7] was 1000 nM; in data set [11], 2400 nM; in data set [13], 500 nM. Besides, the Vd was found to be 1.4 L/kg in data set [8] and 0.7 L/kg in data set [14]. In data set [9], the bioavailability (as a rule, dose-corrected exposure relative to a reference, in per cent) was 59%. For the same molecule, the half-life in [10] is 3.6 h. Moreover, in [12], the clearance (usually the volume of plasma or blood freed of the substance per unit of time) was found to be 10.1 mL/min/kg. Moreover, the result in data set [17] was Active. Also, the AUC at 168 h in data set [18] was 1480 µM·h; in [19], 6 µM·h.
